Measurements taken from patent US9113629B2, “4-amino-6-(4-substituted-phenyl)-picolinates and 6-amino-2-(4-substituted-phenyl)-pyrimidine-4-carboxylates and their use as herbicides” (DOW AGROSCIENCES LLC, priority 2013, dated 2015).

What was measured:
[1] = tested on: LOLSS: ryegrass including, Italian ryegrass (Lolium multiflorum), rigid ryegrass (Lolium rigidum), annual ryegrass (Lolium multiflorum subsp. Gaudini); experiment: Post-emergent Test III, herbicidal activity in wheat and barley; assay type: in vivo; conditions: Table 9, probit analysis, 21 d; for GR50 LOLSS: dose for 50 percent growth reduction; for GR80 LOLSS: dose for 80 percent growth reduction
Method in brief: (§1)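 Plants at the second to third true-leaf stage, grown in a greenhouse at about 18/17 °C with a 14 h photoperiod, were sprayed post-emergence at 187 L/ha with the high rate and ½× to 1/16× serial dilutions in an acetone/DMSO/crop-oil/surfactant carrier. Injury was rated visually at 21 d on a 0–100% scale, and GR20–GR90 were derived by probit analysis.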

[2] = as above; assay type: in vivo, Lolium multiflorum, Lolium rigidum; conditions: Lolium multiflorum, post-emergence, 504 h, Table 9, post-emergent, 21 d, read-out: Visual Growth Reduction (%) 21 Days After Application LOLSS; for pest or weed control at 35 g/ha: 35 g ai/ha; for pest or weed control at 70 g/ha: 70 g ai/ha; for pest or weed control at 140 g/ha: 140 g ai/ha
Method in brief: as §1

[3] = tested on: HORSS: barley, including spring and winter (Hordeum vulgare); experiment: as above; assay type: in vivo; conditions: Table 9, 21 d; for pest or weed control at 35 g/ha / pest or weed control at 70 g/ha / pest or weed control at 140 g/ha: Hordeum vulgare, post-emergence, 504 h, post-emergent, read-out: Visual Growth Reduction (%) 21 Days After Application HORSS; for pest or weed control at 35 g/ha: 35 g ai/ha; for pest or weed control at 70 g/ha: 70 g ai/ha; for GR20 HORSS: dose for 20 percent growth reduction, probit analysis; for pest or weed control at 140 g/ha: 140 g ai/ha
Method in brief: as §1

[4] = tested on: KCHSC: kochia (Kochia scoparia); experiment: as above; assay type: in vivo; conditions: Table 9, 21 d; for pest or weed control at 35 g/ha / pest or weed control at 70 g/ha / pest or weed control at 140 g/ha: Bassia scoparia, post-emergence, 504 h, post-emergent, read-out: Visual Growth Reduction (%) 21 Days After Application KCHSC; for pest or weed control at 35 g/ha: 35 g ai/ha; for pest or weed control at 70 g/ha: 70 g ai/ha; for GR50 KCHSC: dose for 50 percent growth reduction; for GR50 KCHSC / GR80 KCHSC: probit analysis; for GR80 KCHSC: dose for 80 percent growth reduction; for pest or weed control at 140 g/ha: 140 g ai/ha
Method in brief: as §1

[5] = tested on: APESV: bentgrass (Apera spica-venti); experiment: as above; assay type: in vivo; conditions: Table 9, 21 d; for pest or weed control at 35 g/ha / pest or weed control at 70 g/ha / pest or weed control at 140 g/ha: Apera spica-venti, post-emergence, 504 h, post-emergent, read-out: Visual Growth Reduction (%) 21 Days After Application APESV; for pest or weed control at 35 g/ha: 35 g ai/ha; for pest or weed control at 70 g/ha: 70 g ai/ha; for GR50 APESV: dose for 50 percent growth reduction; for GR50 APESV / GR80 APESV: probit analysis; for GR80 APESV: dose for 80 percent growth reduction; for pest or weed control at 140 g/ha: 140 g ai/ha
Method in brief: as §1

[6] = tested on: TRZSS: wheat, including spring and winter (Triticum aestivum); experiment: as above; assay type: in vivo; conditions: Table 9, 21 d; for GR20 TRZSS: dose for 20 percent growth reduction, probit analysis; for pest or weed control at 35 g/ha / pest or weed control at 70 g/ha / pest or weed control at 140 g/ha: Triticum aestivum, post-emergence, 504 h, post-emergent, read-out: Visual Growth Reduction (%) 21 Days After Application TRZSS; for pest or weed control at 35 g/ha: 35 g ai/ha; for pest or weed control at 70 g/ha: 70 g ai/ha; for pest or weed control at 140 g/ha: 140 g ai/ha
Method in brief: as §1

[7] = tested on: SETVI: green foxtail (Setaria viridis); experiment: as above; assay type: in vivo; conditions: Table 9, 21 d; for pest or weed control at 35 g/ha / pest or weed control at 70 g/ha / pest or weed control at 140 g/ha: Setaria viridis, post-emergence, 504 h, post-emergent, read-out: Visual Growth Reduction (%) 21 Days After Application SETVI; for pest or weed control at 35 g/ha: 35 g ai/ha; for pest or weed control at 70 g/ha: 70 g ai/ha; for GR50 SETVI: dose for 50 percent growth reduction; for GR50 SETVI / GR80 SETVI: probit analysis; for GR80 SETVI: dose for 80 percent growth reduction; for pest or weed control at 140 g/ha: 140 g ai/ha
Method in brief: as §1

SMILES	GR50 LOLSS [1]	GR80 LOLSS [1]	pest or weed control at 35 g/ha [2]	pest or weed control at 70 g/ha [2]	pest or weed control at 35 g/ha [3]	pest or weed control at 70 g/ha [3]	GR20 HORSS [3]	pest or weed control at 35 g/ha [4]	pest or weed control at 70 g/ha [4]	GR50 KCHSC [4]	GR80 KCHSC [4]	pest or weed control at 35 g/ha [5]	pest or weed control at 70 g/ha [5]	GR50 APESV [5]	GR80 APESV [5]	GR20 TRZSS [6]	pest or weed control at 35 g/ha [6]	pest or weed control at 70 g/ha [6]	pest or weed control at 35 g/ha [7]	pest or weed control at 70 g/ha [7]	other results
C=Cc1c(C(=O)O)nc(-c2ccc(C#N)cc2)c(F)c1N [Compound 150]	>140 g ai/ha	>140 g ai/ha	0 to 29%	0 to 29%	30 to 44%	45 to 59%	8 g ai/ha	60 to 74%	60 to 74%	7 g ai/ha	>140 g ai/ha	0 to 29%	0 to 29%	>140 g ai/ha	>140 g ai/ha	1 g ai/ha	60 to 74%	60 to 74%	0 to 29%	30 to 44%	GR50 SETVI [7]: 79 g ai/ha; GR80 SETVI [7]: >140 g ai/ha
Nc1c(F)c(-c2cc(F)c(Br)cc2F)nc(C(=O)O)c1Cl [Compound 42, 4-amino-6-(4-bromo-2,5-difluorophenyl)-3-chloro-5-fluoropicolinic acid]	76 g ai/ha	>140 g ai/ha	30 to 44%	45 to 59%	85 to 94%	85 to 94%	1 g ai/ha	85 to 94%	60 to 74%	1 g ai/ha	1 g ai/ha	85 to 94%	85 to 94%	7 g ai/ha	22 g ai/ha	1 g ai/ha	85 to 94%	85 to 94%	85 to 94%	85 to 94%	pest or weed control at 140 g/ha [2]: 75 to 84%; pest or weed control at 140 g/ha [3]: 95 to 100%; pest or weed control at 140 g/ha [4]: 95 to 100%; pest or weed control at 140 g/ha [5]: 95 to 100%; pest or weed control at 140 g/ha [6]: 95 to 100%; pest or weed control at 140 g/ha [7]: 95 to 100%; GR50 SETVI [7]: 1 g ai/ha; GR80 SETVI [7]: 19 g ai/ha
COC(=O)c1nc(-c2ccc(I)cc2)c(Cl)c(N)c1Cl [Compound 96]	48 g ai/ha	>140 g ai/ha	45 to 59%	60 to 74%	85 to 94%	95 to 100%	1 g ai/ha	0 to 29%	60 to 74%	79 g ai/ha	>140 g ai/ha	30 to 44%	30 to 44%	125 g ai/ha	>140 g ai/ha	1 g ai/ha	85 to 94%	85 to 94%	0 to 29%	60 to 74%	pest or weed control at 140 g/ha [2]: 60 to 74%; pest or weed control at 140 g/ha [3]: 95 to 100%; pest or weed control at 140 g/ha [4]: 60 to 74%; pest or weed control at 140 g/ha [5]: 45 to 59%; pest or weed control at 140 g/ha [6]: 95 to 100%; pest or weed control at 140 g/ha [7]: 75 to 84%; GR50 SETVI [7]: 72 g ai/ha; GR80 SETVI [7]: 128 g ai/ha
